Positions count from the first letter of the chain named. Blank lines part the entries; values can stand above or below the compound they belong to.
Key:
[1] = test system: ER-RARα; assay: ER-RARα chimeric receptor transactivation assay in transfected CV-1 cells (luciferase); assay type: cell-based; details: CV-1 cells transfected with ER-RARα; highest dose tested 1 μM; FIG. 3A
Protocol: (§1) RAR transactivation assays were performed essentially as previously described. For analysis of ER-RARα chimeric receptor transactivation, 5×10^3 CV-1 cells were plated per well of a 96-well microtiter plate and were transiently transfected with Lipofectamine and the indicated DNA. Specifically, transfections were performed with 0.1 μg of pERE-tk-Luc reporter, which contains the estrogen regulated element of the Xenopus vittelogenin A2 gene inserted into the plasmid tk-Luciferase, and 0.01 μg of the SV-40 based vector pECE carrying a chimeric ER-RAR receptor consisting of the estrogen receptor A/B and DNA binding domains fused to the DEF domain of RARα, β or γ. Alternatively, cells were cotransfected with the reporter plasmid MTV-4 (R5G)-Luciferase together with the plasmid pRS-hRXRα and either pRS-RARα-P-GR, pcDNA3-RARβ-P-GR, or pcDNA3-RARγ-P-GR as previously described (Klein et al., J. Biol. Chem. 271:22692-22696 (1996)). After eighteen hours, cells were rinsed with phosphate buffered saline (PBS) and fed with D-MEM (Gibco-BRL) containing 10% activated charcoal extracted fetal bovine serum (Gemini Bio-Products). Cells were treated with retinoids for 18 hours after which they were lysed; luciferase activity was measured as previously described, with luciferase values representing the mean±SEM of quadruplicate determinations.

[2] = biological target: T1, RARα/RXRα heterodimer bound to a DR-5 retinoic acid receptor response element (RARE) (Homo sapiens, UniProt P10276); assay: DNA dependent coregulator recruitment assay (ternary complex immunoprecipitation from transfected CV-1 whole cell extracts); assay type: biochemical; details: for ligand mediated dissociation of N-CoR: wild type RARα ternary complex; for SRC-1 recruitment to the wild type ternary complex: wild type RARα/RXRα, FIG. 1, FIG. 5B
T1 construct: expressed in transfected cells; host or cells: CV-1 cells, transient transfection; whole cell extract
T1 sequence (P10276 1-462): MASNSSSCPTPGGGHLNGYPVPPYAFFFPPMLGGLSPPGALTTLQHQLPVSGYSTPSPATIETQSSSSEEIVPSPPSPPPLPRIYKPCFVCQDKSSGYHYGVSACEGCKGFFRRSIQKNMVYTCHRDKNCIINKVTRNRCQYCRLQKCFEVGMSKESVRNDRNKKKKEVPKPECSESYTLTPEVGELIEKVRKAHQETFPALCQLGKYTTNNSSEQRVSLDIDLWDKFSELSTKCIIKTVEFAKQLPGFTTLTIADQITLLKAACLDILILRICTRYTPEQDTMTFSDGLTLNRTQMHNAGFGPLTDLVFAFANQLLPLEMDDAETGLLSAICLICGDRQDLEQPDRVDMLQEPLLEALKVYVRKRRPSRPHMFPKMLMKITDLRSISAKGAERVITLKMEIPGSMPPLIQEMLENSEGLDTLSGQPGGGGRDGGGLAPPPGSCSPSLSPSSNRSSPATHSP
T1 sequence (P19793 1-462 partner): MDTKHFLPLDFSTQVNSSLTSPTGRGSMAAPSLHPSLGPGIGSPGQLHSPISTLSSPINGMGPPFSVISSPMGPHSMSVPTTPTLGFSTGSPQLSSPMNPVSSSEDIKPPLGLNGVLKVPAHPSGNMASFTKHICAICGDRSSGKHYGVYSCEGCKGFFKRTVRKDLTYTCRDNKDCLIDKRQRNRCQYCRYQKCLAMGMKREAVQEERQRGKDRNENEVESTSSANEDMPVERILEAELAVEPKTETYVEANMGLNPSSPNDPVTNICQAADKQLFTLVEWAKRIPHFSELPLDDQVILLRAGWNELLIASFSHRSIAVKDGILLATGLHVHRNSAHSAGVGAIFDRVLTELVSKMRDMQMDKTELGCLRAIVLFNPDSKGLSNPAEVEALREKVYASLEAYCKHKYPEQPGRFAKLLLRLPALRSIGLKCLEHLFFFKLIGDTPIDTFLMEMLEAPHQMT
Protocol: Cells were transfected and cell extracts prepared essentially as follows. For whole cell extracts, CV-1 cells were cultured with D-MEM (Gibco-BRL Life Technologies; Rockville, Md.) containing 10% activated charcoal extracted fetal bovine serum (Gemini Bio-Products). At a density of 40˜60% (15-cm plate, Falcon; Fort Worth, Tex.), cells were transiently transfected with 15 μl FuGene 6 Transfection Reagent (Roche Diagnostics) with 0.5 ug of pRS-RXRα, and 5 ug of either pcDNA3.1-hRARα-V5, pcDNA3.1-hRARβ-V5 or pcDNA3.1-hRARγ-V5 per plate. After two days, cells were rinsed twice with PBS and lysed in cold NET buffer (20 mM Tris-Cl [pH8.0], 200 mM NaCl, 1 mM EDTA, 0.1% NP-40, 10% glycerol) containing protease inhibitors, homogenized by QIAshredder (Qiagen; Valencia, Calif.), and clarified by centrifugation.
Immunoprecipitations and western analyses were performed as follows. CV-1 whole cell extract from transfected cells (1 mg) was used for each immunoprecipitation. Cell lysates were incubated with ligands on ice for 1 hour. […] After a 1 hour incubation on ice with primary antibody (mouse anti-V5, Invitrogen), protein G-agarose (SIGMA) was added and samples were rocked overnight at 4° C. […] Membranes were probed with the indicated antibodies in PBS-T buffer (PBS with 0.1% Tween-20) containing 5% nonfat dry milk, and washed in PBS-T buffer. Primary antibodies (#SC553, rabbit anti-RXRα; #SC1609, goat anti-N-CoR) were obtained from Santa Cruz Biotech and Affinity BioReagents (#MA1-840, mouse anti-SRC-1; Golden, Colo.).
The DNA dependent coregulator recruitment assay was used to measure the ability of RARα selective ligands shown in Table 2 to recruit the coactivators SRC-1 and ACTR to the RARα/RXRα heterodimer bound to a DR-5 retinoic acid receptor response element (RARE).

[3] = test system: RARα-P-GR (wild type RARα); assay: RARα-P-GR retinoid reporter transactivation in CV-1 cells; assay type: cell-based; details: FIG. 4
Protocol: as §1, with “After eighteen hours, cells were rinsed with phosphate buffered saline (PBS) and fed with D-MEM (Gibco-BRL) containing 10% activated charcoal extracted fetal bovine serum (Gemini Bio-Products).” left out
The RAR=60 R272-A mutant was analyzed for dominant negative activity using a retinoid reporter system responsive to transfected RARs recognizing RAREs containing a glucocorticoid receptor half-site (Klein et al., supra, 1996).

[4] = test system: RARα(R272-A)-P-GR; assay: RARα(R272-A)-P-GR retinoid reporter transactivation in CV-1 cells; assay type: cell-based; details: FIG. 4
[5] = test system: AP-1; assay: Anti-AP1 assay: phorbol ester stimulated collagenase-promoter reporter containing an AP-1 response element; assay type: cell-based; details: for anti-AP-1 activity (antagonism of TPA stimulated collagenase reporter activity): FIG. 6
Protocol: The ability of AGN196382 to antagonize phorbol ester stimulated transcription was assayed using a collagenase-promoter reporter construct containing an AP-1 response element. […] Specifically, detection of anti-AP-1 activity by AGN196382 was only detectable at doses greater than 10 μM; similarly, detection of SRC-1 recruitment to the ternary complex by 196382 was apparent only at doses greater than 10 μM. Such elevated doses of AGN196382, while sufficient for efficacious anti-AP-1 activity, are not sufficient for efficient transcriptional activation of RARα.

[6] = biological target: T2, RARα R272-A containing ternary complex (Homo sapiens, UniProt P10276, R272A); assay: Ternary complex coregulator assay with RARα-V5 mutant R272-A; assay type: biochemical; details: 1 μM ligand; FIG. 2
T2 construct: expressed in transfected cells; host or cells: CV-1 cells, transient transfection; whole cell extract
T2 sequence (P10276 1-462 R272A): T1 sequence (P10276 1-462) with R272A
T2 sequence (P19793 1-462 partner): T1 sequence (P19793 1-462 partner)

[7] = biological target: RARα/RXRα heterodimer (wild type RARα-V5 with RXRα) in the RAR/RXR/DNA ternary complex (human) (UniProt P19793); assay: co-immunoprecipitation of ternary complex, western blot; with 1 µM AGN194794, relative to 1 µM TTNPB
[8] = biological target: RARα/RXRα heterodimer (wild type RARα-V5 with RXRα) in the RAR/RXR/DNA ternary complex (human) (UniProt P19793); assay: co-immunoprecipitation of ternary complex, western blot; with 1 µM AGN196382, relative to 1 µM TTNPB

Compound: CCOc1c(C(C)C)cc(C(=O)Nc2cc(F)c(C(=O)O)c(F)c2)cc1C(C)C [AGN196382]
- transactivation at RARα [1]: no activity at RARα except at the highest dose (1 μM) tested
- dose at which SRC-1 recruitment to the ternary complex is apparent [2]: greater than 10 μM
- p300 recruitment relative to TTNPB ([2]; ligands 1 μM, FIG. 3B): 30%
- ligand mediated dissociation of N-CoR [2]: nearly absent
- ligand mediated dissociation of N-CoR ([2]; listed as 196382): significantly impaired
- SRC-1 recruitment to the wild type ternary complex [2]: essentially identical for the two ligands
- activation of wild type RARα [3]: significantly reduced relative to TTNPB
- activation of RARα(R272-A) [4]: not activated at all
- dose at which anti-AP-1 activity is detectable [5]: greater than 10 μM
- anti-AP-1 activity (antagonism of TPA stimulated collagenase reporter activity) [5]: similarly efficacious
- SRC-1 recruitment to RARα R272-A ternary complex [6]: lack of recruitment of SRC-1

- % recruitment relative to TTNPB [7]: 34%
- % recruitment relative to TTNPB [8]: 30%
Compound: p300 (coactivator p300/CBP) (from UniProt Q09472 2-2414)

Compound: CC(C)c1cc(C(=O)Nc2ccc(C(=O)O)c(F)c2)c(O)c(C(C)C)c1 [AGN194365]
- transactivation at RARα [1]: potent and effective transactivation properties
- SRC-1 recruitment compared to TTNPB ([2]; ligands 1 μM, FIG. 3B): 65%
- ligand mediated dissociation of N-CoR [2]: dissociation of N-CoR

Compound: CCOc1c(C2CC2)cc(C(=O)Nc2cc(F)c(C(=O)O)c(F)c2)cc1C(C)(C)C [AGN196412]
- transactivation at RARα [1]: no activity at RARα except at the highest dose (1 μM) tested
- ACTR recruitment compared to TTNPB ([2]; ligands 1 μM, FIG. 3B): 65%
- ligand mediated dissociation of N-CoR [2]: significantly impaired

Compound: C/C(=C\c1ccc(C(=O)O)cc1)c1ccc2c(c1)C(C)(C)CCC2(C)C [TTNPB, reference compound]
- anti-AP-1 activity (antagonism of TPA stimulated collagenase reporter activity) [5]: potent and efficacious anti-AP-1 activity

Compound: CC12CCC(C)(CC1)c1c2cc(C(=O)Nc2cc(F)c(C(=O)O)c(F)c2)c(O)c1Br [AGN194794]
- transactivation at RARα [1]: activated RARα, albeit with slightly less efficacy and potency
- p300 recruitment relative to TTNPB ([2]; ligands 1 μM, FIG. 3B): 34%
- ligand mediated dissociation of N-CoR [2]: full N-CoR disengagement
- ligand mediated dissociation of N-CoR ([2]; listed as 194794): dissociation of N-CoR
- SRC-1 recruitment to the wild type ternary complex [2]: essentially identical for the two ligands
